Assay results as given in ChEMBL document CHEMBL1155033, “Catalytic analysis of the validamycin glycosyltransferase (ValG) and enzymatic production of 4''-epi-validamycin A” (J Nat Prod, 2008).
Activity calls are given as the source filed them. The calls are words filed in the database; no cut-off is given here.

System: Rhizoctonia solani
Assay: Growth inhibition of Rhizoctonia solani assessed as inhibition of fungal mycelia expansion at 1 mg after 2 days by agar plug assay
Assay type: functional, organism-based

For `OCC1=C[C@@H](N[C@H]2C[C@H](CO)[C@@H](O[C@H]3O[C@@H](CO)[C@H](O)[C@@H](O)[C@@H]3O)[C@H](O)[C@H]2O)[C@H](O)[C@@H](O)[C@@H]1O`, the Activity was “Active”.
